Experimental data from patent US8937092B2, “Aryl or N-heteroaryl substituted methanesulfonamide derivatives as vanilloid receptor ligands” (Gruenenthal GmbH, priority 2011, dated 2015).

Molecular target: vanilloid receptor 1 (VR1/TRPV1 receptor) (Homo sapiens, UniProt Q8NER1)
Assay: Functional FLIPR Ca2+ influx assay on vanilloid receptor 1, capsaicin (Cap) stimulus
Format: cell-based
Settings: for Ki: Ki from IC50 by Cheng-Prusoff, read-out: (f) Ki (human being) [nM], Cap; for inhibition at 5 µM: read-out: (f) inhibition (human being), Cap, @5 μM
Procedure: Furthermore, preference may be given to compounds according to the invention that cause a 50 percent displacement of capsaicin, which is present at a concentration of 100 nM, in a FLIPR assay with CHO K1 cells which were transfected with the human VR1 gene at a concentration of less than 2,000 nM, preferably less than 1,000 nM, particularly preferably less than 300 nM, most particularly preferably less than 100 nM, even more preferably less than 75 nM, additionally preferably less than 50 nM, most preferably less than 10 nM.
In the process, the Ca^2+ influx is quantified in the FLIPR assay with the aid of a Ca^2+-sensitive dye (type Fluo-4, Molecular Probes Europe BV, Leiden, the Netherlands) in a fluorescent imaging plate reader (FLIPR, Molecular Devices, Sunnyvale, USA), as described hereinafter.
Pharmacological Methods I. Functional Testing Carried Out on the Vanilloid Receptor 1 (VRI/TRPV1 Receptor) […]
The number of cells in the suspension is set to 3×10^5 per mL and 150 μL of this suspension are in each case introduced into a recess in the cell culture plates coated as described hereinbefore. In the incubator the plates are left for two to three days at 37° C., 5% by volume of CO2 and 95% relative humidity. Subsequently, the cells are loaded with 2 μM of Fluo-4 and 0.01% by volume of Pluronic F127 (Molecular Probes Europe BV, Leiden, the Netherlands) in HBSS buffer (Hank's buffered saline solution, Gibco Invitrogen GmbH, Karlsruhe, Germany) for 30 min at 37° C., washed 3 times with HBSS buffer and after further incubation for 15 minutes at room temperature used for Ca^2+ measurement in a FLIPR assay. The Ca^2+-dependent fluorescence is in this case measured before and after the addition of substances (λex=488 nm, λem=540 nm). Quantification is carried out by measuring the highest fluorescence intensity (FC, fluorescence counts) over time.
The FLIPR protocol consists of 2 substance additions. First the compounds to be tested (10 μM) are pipetted onto the cells and the Ca^2+ influx is compared with the control (capsaicin 10 μM). This provides the result in % activation based on the Ca^2+ signal after the addition of 10 μM of capsaicin (CP). After 5 minutes' incubation, 100 nM of capsaicin are applied and the Ca^2+ influx is also determined.
Desensitising agonists and antagonists lead to suppression of the Ca^2+ influx. The % inhibition is calculated compared to the maximum achievable inhibition with 10 μM of capsazepine.
Triple analyses (n=3) are carried out and repeated in at least 3 independent experiments (N=4).
Starting from the percentage displacement caused by different concentrations of the compounds to be tested of general formula I, IC50 inhibitory concentrations which cause a 50-percent displacement of capsaicin were calculated. K, values for the test substances were obtained by conversion by means of the Cheng-Prusoff equation (Cheng, Prusoff; Biochem. Pharmacol. 22, 3099-3108, 1973).
The affinity of the compounds according to the invention for the vanilloid receptor 1 (VR1/TRPV1 receptor) was determined as described herein before (pharmacological method I).
The value after the “@” symbol indicates the concentration at which the inhibition (as a percentage) was respectively determined.

| Molecule | Ki | further results |
| --- | --- | --- |
| 2-(3-methyl-4-(methylsulfonamidomethyl)phenyl)-N-((2-m-tolyl-6-(trifluoromethyl)pyridin-3-yl)methyl)propanamide [Example 97] | 4 nM | – |
| Cc1cccc(-c2nc(C(F)(F)F)ccc2CNC(=O)C(C)c2cccc(CNS(C)(=O)=O)c2)c1 (stereo not shown) [Example 1, 2-(3-(methylsulfonamidomethyl)phenyl)-N-((2-m-tolyl-6-(trifluoromethyl)pyridin-3-yl)methyl)propanamide] | – | inhibition at 5 µM: 44% |
| Cc1cccc(-c2nc(C(F)(F)F)ccc2CNC(=O)Nc2ccc(CNS(C)(=O)=O)cc2)c1 [Example 2, N-(4-(3-((2-m-tolyl-6-(trifluoromethyl)pyridin-3-yl)methyl)ureido)benzyl)methanesulfonamide] | 10 nM | – |
| Cc1cccc(-c2nc(C(F)(F)F)ccc2CNC(=O)C(C)c2ccc(CNS(C)(=O)=O)cc2)c1 (stereo not shown) [Example 4, 2-(4-(methylsulfonamidomethyl)phenyl)-N-((2-m-tolyl-6-(trifluoromethyl)pyridin-3-yl)methyl)propanamide] | 66 nM | – |
| CC(C(=O)NCc1ccc(C(F)(F)F)nc1-c1ccccc1)c1ccc(CNS(C)(=O)=O)c(F)c1 (stereo not shown) [Example 5, 2-(3-fluoro-4-(methylsulfonamidomethyl)phenyl)-N-((2-phenyl-6-(trifluoromethyl)pyridin-3-yl)methyl)propanamide] | 31 nM | – |
| CC(C(=O)NCc1ccc(C(F)(F)F)nc1-c1ccccc1F)c1ccc(CNS(C)(=O)=O)c(F)c1 (stereo not shown) [Example 6, 2-(3-fluoro-4-(methylsulfonamidomethyl)phenyl)-N-((2-(2-fluorophenyl)-6-(trifluoromethyl)pyridin-3-yl)methyl)propanamide] | – | inhibition at 5 µM: 37% |
| CC(C(=O)NCc1ccc(C(F)(F)F)nc1-c1cccc(F)c1)c1ccc(CNS(C)(=O)=O)c(F)c1 (stereo not shown) [Example 7, 2-(3-fluoro-4-(methylsulfonamidomethyl)phenyl)-N-((2-(3-fluorophenyl)-6-(trifluoromethyl)pyridin-3-yl)methyl)propanamide] | 61 nM | – |
| CC(C(=O)NCc1ccc(C(F)(F)F)nc1-c1ccc(F)cc1)c1ccc(CNS(C)(=O)=O)c(F)c1 (stereo not shown) [Example 8, 2-(3-fluoro-4-(methylsulfonamidomethyl)phenyl)-N-((2-(4-fluorophenyl)-6-(trifluoromethyl)pyridin-3-yl)methyl)propanamide] | 66 nM | – |
| CC(C(=O)NCc1ccc(C(F)(F)F)nc1-c1cccc(F)c1F)c1ccc(CNS(C)(=O)=O)c(F)c1 (stereo not shown) [Example 9, N-((2-(2,3-difluorophenyl)-6-(trifluoromethyl)pyridin-3-yl)methyl)-2-(3-fluoro-4-(methylsulfonamidomethyl)phenyl)propanamide] | 47 nM | – |
| CC(C(=O)NCc1ccc(C(F)(F)F)nc1-c1ccc(F)c(F)c1)c1ccc(CNS(C)(=O)=O)c(F)c1 (stereo not shown) [Example 10, N-((2-(3,4-difluorophenyl)-6-(trifluoromethyl)pyridin-3-yl)methyl)-2-(3-fluoro-4-(methylsulfonamidomethyl)phenyl)propanamide] | 17 nM | – |
| CC(C(=O)NCc1ccc(C(F)(F)F)nc1-c1cc(F)cc(F)c1)c1ccc(CNS(C)(=O)=O)c(F)c1 (stereo not shown) [Example 11, N-((2-(3,5-difluorophenyl)-6-(trifluoromethyl)pyridin-3-yl)methyl)-2-(3-fluoro-4-(methylsulfonamidomethyl)phenyl)propanamide] | 41 nM | – |
| CC(C(=O)NCc1ccc(C(F)(F)F)nc1-c1cc(F)ccc1F)c1ccc(CNS(C)(=O)=O)c(F)c1 (stereo not shown) [Example 12, N-((2-(2,5-difluorophenyl)-6-(trifluoromethyl)pyridin-3-yl)methyl)-2-(3-fluoro-4-(methylsulfonamidomethyl)phenyl)propanamide] | 42 nM | – |
| Cc1ccc(-c2nc(C(F)(F)F)ccc2CNC(=O)C(C)c2ccc(CNS(C)(=O)=O)c(F)c2)cc1F (stereo not shown) [Example 13, 2-(3-fluoro-4-(methylsulfonamidomethyl)phenyl)-N-((2-(3-fluoro-4-methylphenyl)-6-(trifluoromethyl)pyridin-3-yl)methyl)propanamide] | 26 nM | – |
| COc1ccc(-c2nc(C(F)(F)F)ccc2CNC(=O)C(C)c2ccc(CNS(C)(=O)=O)c(F)c2)cc1F (stereo not shown) [Example 14, 2-(3-fluoro-4-(methylsulfonamidomethyl)phenyl)-N-((2-(3-fluoro-4-methoxyphenyl)-6-(trifluoromethyl)pyridin-3-yl)methyl)propanamide] | 68 nM | – |
| CC(C(=O)NCc1ccc(C(F)(F)F)nc1-c1cccc(Cl)c1)c1ccc(CNS(C)(=O)=O)c(F)c1 (stereo not shown) [Example 15, N-((2-(3-chlorophenyl)-6-(trifluoromethyl)pyridin-3-yl)methyl)-2-(3-fluoro-4-(methylsulfonamidomethyl)phenyl)propanamide] | 10 nM | – |
| CC(C(=O)NCc1ccc(C(F)(F)F)nc1-c1ccc(F)c(Cl)c1)c1ccc(CNS(C)(=O)=O)c(F)c1 (stereo not shown) [Example 16, N-((2-(3-chloro-4-fluorophenyl)-6-(trifluoromethyl)pyridin-3-yl)methyl)-2-(3-fluoro-4-(methylsulfonamidomethyl)phenyl)propanamide] | 5 nM | – |
| C[C@H](C(=O)NCc1ccc(C(F)(F)F)nc1-c1ccc(F)c(Cl)c1)c1ccc(CNS(C)(=O)=O)c(F)c1 [Example 17, (S)—N-((2-(3-chloro-4-fluorophenyl)-6-(trifluoromethyl)pyridin-3-yl)methyl)-2-(3-fluoro-4-(methylsulfonamidomethyl)phenyl)propanamide] | 4 nM | – |
| C[C@@H](C(=O)NCc1ccc(C(F)(F)F)nc1-c1ccc(F)c(Cl)c1)c1ccc(CNS(C)(=O)=O)c(F)c1 [Example 18, (R)—N-((2-(3-chloro-4-fluorophenyl)-6-(trifluoromethyl)pyridin-3-yl)methyl)-2-(3-fluoro-4-(methylsulfonamidomethyl)phenyl)propanamide] | – | inhibition at 5 µM: 42% |
| Cc1ccccc1-c1nc(C(F)(F)F)ccc1CNC(=O)C(C)c1ccc(CNS(C)(=O)=O)c(F)c1 (stereo not shown) [Example 19, 2-(3-fluoro-4-(methylsulfonamidomethyl)phenyl)-N-((2-o-tolyl-6-(trifluoromethyl)pyridin-3-yl)methyl)propanamide] | – | inhibition at 1 µM (inhibition at 1 μM, read-out: (f) inhibition (human being), Cap, @1 μM): 18% |
| Cc1cccc(-c2nc(C3CC3)ccc2CNC(=O)C(C)c2ccc(CNS(C)(=O)=O)c(F)c2)c1 (stereo not shown) [Example 20, N-((6-cyclopropyl-2-m-tolylpyridin-3-yl)methyl)-2-(3-fluoro-4-(methylsulfonamidomethyl)phenyl)propanamide] | 45 nM | – |
| Cc1cccc(-c2cc(C(C)(C)C)ccc2CNC(=O)C(C)c2ccc(CNS(C)(=O)=O)c(F)c2)c1 (stereo not shown) [Example 21, N-((5-tert-butyl-3′-methylbiphenyl-2-yl)methyl)-2-(3-fluoro-4-(methylsulfonamidomethyl)phenyl)propanamide] | 37 nM | – |
| Cc1cccc(-c2cc(C(F)(F)F)ccc2CNC(=O)C(C)c2ccc(CNS(C)(=O)=O)c(F)c2)c1 (stereo not shown) [Example 22, 2-(3-fluoro-4-(methylsulfonamidomethyl)phenyl)-N-((3′-methyl-5-(trifluoromethyl)biphenyl-2-yl)methyl)propanamide] | 23 nM | – |
| Cc1cccc(-c2nc(C(C)(C)C)ccc2CNC(=O)C(C)c2ccc(CNS(C)(=O)=O)c(F)c2)c1 (stereo not shown) [Example 23, N-((6-tert-butyl-2-m-tolylpyridin-3-yl)methyl)-2-(3-fluoro-4-(methylsulfonamidomethyl)phenyl)propanamide] | 24 nM | – |
| Cc1cccc(-c2nc(C(F)(F)F)ccc2CNC(=O)C(C)c2ccc(CNS(C)(=O)=O)c(F)c2)c1 (stereo not shown) [Example 24, 2-(3-fluoro-4-(methylsulfonamidomethyl)phenyl)-N-((2-m-tolyl-6-(trifluoromethyl)pyridin-3-yl)methyl)propanamide] | 6 nM | – |
| Cc1cccc(-c2nc(C(F)(F)F)ccc2CNC(=O)[C@@H](C)c2ccc(CNS(C)(=O)=O)c(F)c2)c1 [Example 25, (S)-2-(3-fluoro-4-(methylsulfonamidomethyl)phenyl)-N-((2-m-tolyl-6-(trifluoromethyl)pyridin-3-yl)methyl)propanamide] | 15 nM | – |
